Earlier results, collected in patent US20220215898A1, “METHODS AND […] FOR GENERATING A VIRTUAL MODEL OF XENOBIOTIC EXPOSURE USING TRANS[…] OF LIQUID BIOPSY SAMPLES” (Certara USA, Inc., priority 2019, published 2022).

Conditions: compound files selected from the Simcyp library

Structure (SMILES)	clearance category of CYP3A substrate
Cc1nnc2n1-c1ccc(Cl)cc1C(c1ccccc1)=NC2 [alprazolam]	low clearance
Cc1ncc2n1-c1ccc(Cl)cc1C(c1ccccc1F)=NC2 [midazolam]	medium clearance
